Measured values from the NIST ThermoML archive (doi:10.1021/acs.jced.7b00694).

Experiment: xn = mol fraction of the nth substance listed
Settings: Gas, Buoyancy - hydrostatic balance with magnetic suspension - one sinker

[HH] [hydrogen] + N#N
Settings | mass density [kg/m3]
250.04 K, 11001 kPa, x2 = 0.9 | 137.2
250.04 K, 11002 kPa, x2 = 0.5001 | 76.353
250.04 K, 12001 kPa, x2 = 0.5001 | 82.831
250.04 K, 12002 kPa, x2 = 0.9 | 149.273
250.04 K, 13003 kPa, x2 = 0.5001 | 89.231
250.04 K, 13005 kPa, x2 = 0.9 | 161.179
250.04 K, 14001 kPa, x2 = 0.5001 | 95.51
250.04 K, 15005 kPa, x2 = 0.5001 | 101.724
250.04 K, 15008 kPa, x2 = 0.9 | 184.307
250.04 K, 16003 kPa, x2 = 0.5001 | 107.801
250.04 K, 17004 kPa, x2 = 0.5001 | 113.79
250.04 K, 17014 kPa, x2 = 0.9 | 206.478
250.04 K, 18007 kPa, x2 = 0.5001 | 119.684
250.04 K, 18011 kPa, x2 = 0.9 | 217.113
250.04 K, 19005 kPa, x2 = 0.5001 | 125.441
250.04 K, 19653 kPa, x2 = 0.9 | 234.021
250.04 K, 19934 kPa, x2 = 0.5001 | 130.7
250.05 K, 14008 kPa, x2 = 0.9 | 172.872
250.05 K, 16004 kPa, x2 = 0.9 | 195.446
250.05 K, 19014 kPa, x2 = 0.9 | 227.523
260.02 K, 999 kPa, x2 = 0.95 | 12.396
260.02 K, 1998 kPa, x2 = 0.95 | 24.915
260.02 K, 2987 kPa, x2 = 0.95 | 37.39
260.02 K, 3998 kPa, x2 = 0.95 | 50.206
260.02 K, 4998 kPa, x2 = 0.95 | 62.921
260.02 K, 5998 kPa, x2 = 0.95 | 75.652
260.02 K, 6997 kPa, x2 = 0.95 | 88.348
260.02 K, 8004 kPa, x2 = 0.95 | 101.083
260.02 K, 8999 kPa, x2 = 0.95 | 113.598
260.02 K, 10003 kPa, x2 = 0.95 | 126.121
260.02 K, 11004 kPa, x2 = 0.95 | 138.476
260.02 K, 12004 kPa, x2 = 0.95 | 150.65
260.02 K, 13007 kPa, x2 = 0.95 | 162.68
260.02 K, 13989 kPa, x2 = 0.95 | 174.256
260.02 K, 15009 kPa, x2 = 0.95 | 186.058
260.02 K, 16012 kPa, x2 = 0.95 | 197.415
260.02 K, 17003 kPa, x2 = 0.95 | 208.387
260.02 K, 18018 kPa, x2 = 0.95 | 219.361
260.02 K, 19020 kPa, x2 = 0.95 | 229.93
260.02 K, 19954 kPa, x2 = 0.95 | 239.529
260.03 K, 998 kPa, x2 = 0.9 | 11.773
260.03 K, 2000 kPa, x2 = 0.9 | 23.676
260.04 K, 2987 kPa, x2 = 0.9 | 35.462
260.04 K, 3998 kPa, x2 = 0.9 | 47.566
260.04 K, 4998 kPa, x2 = 0.9 | 59.561
260.04 K, 5998 kPa, x2 = 0.9 | 71.547
260.04 K, 6999 kPa, x2 = 0.9 | 83.502
260.04 K, 7999 kPa, x2 = 0.9 | 95.394
260.04 K, 9000 kPa, x2 = 0.9 | 107.209
260.04 K, 10001 kPa, x2 = 0.9 | 118.929
260.04 K, 11002 kPa, x2 = 0.9 | 130.507
260.04 K, 12001 kPa, x2 = 0.9 | 141.918
260.04 K, 13005 kPa, x2 = 0.9 | 153.211
260.04 K, 14004 kPa, x2 = 0.9 | 164.255
260.04 K, 15004 kPa, x2 = 0.9 | 175.116
260.04 K, 16007 kPa, x2 = 0.9 | 185.789
260.04 K, 17014 kPa, x2 = 0.9 | 196.279
260.04 K, 18009 kPa, x2 = 0.9 | 206.415
260.04 K, 19010 kPa, x2 = 0.9 | 216.361
260.04 K, 19736 kPa, x2 = 0.9 | 223.429
274.98 K, 997 kPa, x2 = 0.9 | 11.103
274.98 K, 1997 kPa, x2 = 0.9 | 22.285
274.99 K, 997 kPa, x2 = 0.95 | 11.688
274.99 K, 998 kPa, x2 = 0.5001 | 6.537
274.99 K, 1998 kPa, x2 = 0.5001 | 13.041
274.99 K, 1998 kPa, x2 = 0.95 | 23.478
274.99 K, 2986 kPa, x2 = 0.95 | 35.164
274.99 K, 2997 kPa, x2 = 0.9 | 33.49
274.99 K, 2998 kPa, x2 = 0.5001 | 19.501
274.99 K, 3997 kPa, x2 = 0.5001 | 25.901
274.99 K, 3997 kPa, x2 = 0.9 | 44.699
274.99 K, 3997 kPa, x2 = 0.95 | 47.147
274.99 K, 4997 kPa, x2 = 0.5001 | 32.248
274.99 K, 4997 kPa, x2 = 0.95 | 58.999
274.99 K, 4998 kPa, x2 = 0.9 | 55.901
274.99 K, 5997 kPa, x2 = 0.5001 | 38.535
274.99 K, 5998 kPa, x2 = 0.9 | 67.065
274.99 K, 5998 kPa, x2 = 0.95 | 70.84
274.99 K, 6997 kPa, x2 = 0.5001 | 44.758
274.99 K, 6998 kPa, x2 = 0.9 | 78.183
274.99 K, 6998 kPa, x2 = 0.95 | 82.636
274.99 K, 7997 kPa, x2 = 0.5001 | 50.911
274.99 K, 7998 kPa, x2 = 0.9 | 89.232
274.99 K, 8000 kPa, x2 = 0.95 | 94.385
274.99 K, 8998 kPa, x2 = 0.5001 | 57.003
274.99 K, 9000 kPa, x2 = 0.9 | 100.212
274.99 K, 9000 kPa, x2 = 0.95 | 106.023
274.99 K, 9998 kPa, x2 = 0.5001 | 63.009
274.99 K, 9998 kPa, x2 = 0.9 | 111.047
274.99 K, 10001 kPa, x2 = 0.95 | 117.586
274.99 K, 10998 kPa, x2 = 0.5001 | 68.948
274.99 K, 11001 kPa, x2 = 0.9 | 121.821
274.99 K, 11002 kPa, x2 = 0.95 | 129.012
274.99 K, 11996 kPa, x2 = 0.5001 | 74.789
274.99 K, 12001 kPa, x2 = 0.9 | 132.405
274.99 K, 12003 kPa, x2 = 0.95 | 140.289
274.99 K, 13000 kPa, x2 = 0.5001 | 80.586
274.99 K, 13002 kPa, x2 = 0.9 | 142.866
274.99 K, 13002 kPa, x2 = 0.95 | 151.394
274.99 K, 13998 kPa, x2 = 0.5001 | 86.267
